Data published in paper PMC6769468, “Endogenous Neuropeptide Nocistatin Is a Direct Agonist of Acid-Sensing Ion Channels (ASIC1, ASIC2 and ASIC3)” (Biomolecules, 2019).
Ends that are not written are not given here.

Target: T1, rat ASIC2a (Rattus norvegicus, UniProt Q62962)
T1 construct: expressed in transfected cells; host or cells: Xenopus laevis oocytes (injected)
T1 sequence (Q62962 1-512): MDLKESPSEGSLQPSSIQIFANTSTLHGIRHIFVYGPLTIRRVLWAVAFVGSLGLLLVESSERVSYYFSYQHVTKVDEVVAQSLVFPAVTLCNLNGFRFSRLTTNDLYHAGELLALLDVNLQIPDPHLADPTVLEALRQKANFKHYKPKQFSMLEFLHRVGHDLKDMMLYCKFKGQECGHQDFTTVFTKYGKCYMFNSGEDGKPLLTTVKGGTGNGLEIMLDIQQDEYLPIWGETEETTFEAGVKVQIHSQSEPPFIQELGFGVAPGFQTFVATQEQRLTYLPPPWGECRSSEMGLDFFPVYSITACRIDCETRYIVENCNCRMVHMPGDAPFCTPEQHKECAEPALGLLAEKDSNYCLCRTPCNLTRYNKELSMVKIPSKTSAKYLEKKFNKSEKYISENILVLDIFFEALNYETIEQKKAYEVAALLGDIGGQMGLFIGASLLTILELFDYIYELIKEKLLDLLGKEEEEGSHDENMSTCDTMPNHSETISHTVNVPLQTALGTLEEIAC
Test: Whole-cell current activation, rat ASIC2a in X. laevis oocytes
Type: cell-based
Description: Oocytes expressed rASIC1a, rASIC1b, rASIC2a, and rASIC3 homomeric channels were prepared as described. Injected oocytes were kept for two–three days at 19 °C and then for up to seven days at 15 °C in ND-96 medium supplemented with gentamycin (50 μg·mL^−1) and containing (in mM): 96 NaCl, 2 KCl, 1.8 CaCl2, 1 MgCl2, and 10 HEPES titrated to pH 7.4 with NaOH. Electrophysiological recordings were performed using the GeneClamp500 amplifier (Axon Instruments, Inverurie, UK) at a holding potential of -50 mV. The data were filtered at 20 Hz and digitized at 100 Hz using the L780 AD converter (L-Card, Moscow, Russia). Microelectrodes were filled with 3 M KCl. The external bath solution was ND-96 with pH adjusted to 7.4/7.8 (10 mM HEPES) /8.5 (10 mM Tris). Nocistatin containing solutions were freshly prepared and buffered each experimental day in ND-96 bath solution (pH 7.4/7.8/8.5). Proton-activated currents through ASIC channels were elicited by application of ND-96, in which 10 mM of HEPES was substituted with 10 mM MES at pH 5.5/ 10 mM acetic acid at pH 4.5. The whole-cell recording was performed if a response to the control pH stimulus was stable in at least two replicates. Nocistatin-activated currents were elicited by application of nocistatin containing solutions with various concentrations of the peptide.
Extracellular solutions were applied using a computer-controlled valve system with a flow rate of 1 mL/min. The oocyte chamber volume was 80 µL. The validity of the application system for studying ASIC channels expressed in oocytes was confirmed in experiments by application of a Cl-free solution (containing (in mM): 130 NMDG, 1 MgGluc2, 2 KGluc, 5 HEPES) (pH 7.4). […]
All data are presented as mean ± SEM. The significance of normalized data differences was determined with a non-parametric Kruskal-Wallis ANOVA test with the significance level * p < 0.05 and ** p < 0.01; ns, non-significant.

Sequence: MPRVRSVVQARDAEPEADAEPVADEADEVEQKQLQ [rNS]
- tmax less than for acidification by (1 mM rNS vs acidification, faster): ~ 37%
- Maximal amplitude of peptide activation versus response to standard pH drop (1 mM rNS vs pH drop 7.4 to 5.5): eight times higher
- τdes (desensitization time constant) (1 mM rNS, conditioning pH 7.4, mean ± S.E. from 4–7 measurements): 2.22 ± 0.16 s
